The values below come from patent US8853151B2, “Pro-drug complexes and related methods of use” (The Regents of the University of Michigan, priority 2009, dated 2014).

Values after ≈ are worked out from the molar mass of the structure shown. Where two headings read alike, the source gives them in different places.

Data set [1] can be described thus: Solubility of SN-38 pro-drug complex in comparison with SN-38. In kind it is physicochemical. An excerpt:
The solubility of SN-38 pro-drug complex
[drawing 23] in comparison with SN-38 was investigated.

For data set [2], the system named is breast cancer cell line SKBR3. The data set is described as follows: Effect on cell growth with or without recombinant human DT-Diaphorase (DTD) in the growth medium, SKBR3 cells. In kind it is cell-based. The source says:
(§1) The redox-coupled release of free SN38 from the SN-38 pro-drug complex
(§2) [drawing 24] using the enzyme DT-Diaphorase (DTD) was investigated. DTD is a cytosolic oxidoreductase which catalyzes the two-electron reduction of quinones using NADH or NADPH as electron donors (see, e.g., Phillips et al, Biochemical Pharmacology 68: 2107-2116 (2004); herein incorporated by reference in its entirety). As the DTD-induced reduction of quinones is known to take place even under normoxic conditions, the enzyme is used as a positive control for testing the release of drugs from quinone-linked drugs. Synthesized SN-38 pro-drug complex was incubated with recombinant human DTD (Sigma) added into the cell growth medium in the presence of different concentration of the SN-38 pro-drug complex. The effect of the drug on cell growth was determined in two different human cell lines, the cervical carcinoma cell line KB, and the breast cancer cell line SKBR3.

Data set [3] deals with cervical carcinoma cell line KB. As to the kind of experiment: Effect on cell growth with or without recombinant human DT-Diaphorase (DTD) in the growth medium, KB cells. In kind it is cell-based.
Source text: as §1, §2

[4] abbreviates: absence of DTD, up to 300 nM prodrug.

For the compound `CCc1c2c(nc3ccc(O)cc13)-c1cc3c(c(=O)n1C2)COC(=O)[C@]3(O)CC` [SN38, 7-Ethyl-10-hydroxy-camptothecin, reference compound], the solubility in data set [1] (water) is ~2 µg/mL (≈ 5.1 µM).
Regarding `CCc1c2c(nc3ccc(OC(=O)N(C)CCN(C)C(=O)OCc4c5c(n(CC(=O)NCCOCCOCCOCCn6cc(CCC(=O)CCCC(=O)NCCCCC7NC(=O)[C@@H](Cc8ccc(O)cc8)NC(=O)[C@H](CC(=O)O)NC(=O)CNC(=O)[C@H](CCCNC(=N)N)NC7=O)nn6)c4C)C(=O)C=C(OC)C5=O)cc13)-c1cc3c(c(=O)n1C2)COC(=O)[C@]3(O)CC` (stereo partly shown) [SN-38 pro-drug complex], the cytotoxicity entry in data set [2] (setting [4]) and in data set [3] (setting [4]) was “essentially non-cytotoxic” each time. In addition, the “cytotoxicity on redox-mediated activation (FIG. 9)” value in data set [2] (redox-mediated activation) was “leads to SKBR3 cell cytotoxicity”. Besides, the solubility in data set [1] (in water, read-out: solubility) amounted to 100 µg/mL. The “solubility compared with SN38” value in data set [1] (ratio pro-drug complex / SN38) is “>= 50 times”. Besides, the “cytotoxicity on redox mediated activation (FIG. 8)” value in data set [3] (redox mediated activation) was “leads to KB cell cytotoxicity”.
